What all share (experiment): DTP human tumour cell line panel, 48 h
In assay [1] the test system is HCC-2998 colon.
The subject of assay [2] is A549 NSCLC.
The test system of assay [3] is 786-0 renal.
Assay [4] has as its system HT29 colon.
Assay [5] concerns HCT-116 colon.
Assay [6] concerns SN12C renal.
For assay [7], the system named is HOP-62 NSCLC.
In assay [8] the test system is MOLT-4 leukemia.
Assay [9] deals with MDA-MB-435.
For assay [10], the system named is TK-10 renal.
The test system of assay [11] is UACC-257 melanoma.
Assay [12] relates to NCI-H460 lung.
Assay [13] relates to BT-549 breast.
Assay [14] has as its system SNB-19 CNS.
For assay [15], the system named is K-562 leukemia.
Assay [16] relates to LOX IMVI melanoma.
Assay [17] concerns SK-MEL-28 melanoma.
Assay [18] concerns RPMI-8226 leukemia.
Assay [19] has as its system SR leukemia.

The text below walks through data of PubChem BioAssay (NCI).

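How tested: cells in 96-well plates exposed to compound for 48 hours at five concentrations. TGI denotes the concentration required for complete inhibition of growth.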

Take `COc1cc2oc(-c3ccc4c(c3)OCO4)c(OC)c(=O)c2c(OC)c1O`: the TGI was above 100 µM in assay [1]; above 100 µM in assay [2]; 43.9 µM in assay [3]; above 100 µM in [4]; above 100 µM in assay [5]; above 100 µM in [6]. Moreover, the TGI in [7], in [8], in assay [9], in assay [10], in [11] and in assay [12] was above 100 µM throughout. The TGI in assay [13], in assay [14], in [15], in assay [16] and in assay [17] was above 100 µM each time.

For the molecule `O=C(CCCN1CCC2(CC1)CC(=O)N(N1CCOCC1)C2=O)c1ccc(F)cc1`, the TGI in assay [2], in assay [3], in assay [4], in assay [5], in [6] and in assay [7] was above 100 µM each time. Also, the total growth inhibition concentration (TGI) in assay [8], in assay [18], in assay [9], in assay [10], in assay [11] and in assay [12] was above 100 µM each time. Besides, the TGI in assay [13], in assay [14], in assay [15], in assay [16] and in assay [17] was above 100 µM throughout.

As for `O=C(SC1=NCCN1)c1cccc2ccccc12`, the TGI in [1], in assay [2], in assay [3], in assay [4], in assay [5] and in assay [6] was above 100 µM throughout. Moreover, the TGI is above 100 µM in [7]; 43.2 µM in [8]; 94.6 µM in [18]; above 100 µM in assay [9]; above 100 µM in [10]; 95.9 µM in assay [11]. Further, the TGI in assay [12] is above 100 µM; in [13] it was above 100 µM; in [14] it was above 100 µM; in [15], 73.5 µM; in assay [16], above 100 µM; in [17] it was above 100 µM.

As for `COc1ccc2[nH]cc(C(=O)C(=O)NC34CC5CC(CC(C5)C3)C4)c2c1`, the TGI in assay [1] is above 100 µM; in assay [2], above 100 µM; in [3] it was 47.5 µM; in assay [4] it was 5.32 µM; in [5], above 100 µM; in assay [6], 51.9 µM. The TGI was 74.7 µM in assay [7]; 16.6 µM in [8]; 19.8 µM in [18]; above 100 µM in [9]; above 100 µM in [10]; above 100 µM in [11]. Also, the TGI in assay [12] is 91.3 µM; in [13], above 100 µM; in assay [14], above 100 µM; in assay [15], 37.6 µM; in [16], above 100 µM; in assay [17], above 100 µM.

With `CC(=O)Oc1ccc2cc(Oc3ccc(Cl)c(Cl)c3)c(=O)oc2c1`, the TGI in assay [1] is 39.6 µM; in [2], 94.8 µM; in assay [3], 52.4 µM; in assay [4], above 100 µM; in assay [5], 39.9 µM; in [6] it was 54.1 µM. In addition, the concentration for total growth inhibition (TGI) is 50.6 µM in [7]; above 100 µM in assay [8]; above 100 µM in assay [18]; 79.2 µM in [10]; 85.1 µM in assay [11]; 66 µM in [12]. Further, the TGI in [13] is 34.4 µM; in assay [14], above 100 µM; in assay [15] it was 69.6 µM; in [16], 59.1 µM; in assay [19] it was above 100 µM; in assay [17], 79.3 µM.

Regarding `COc1ccc(C2=C(N)c3c(Cl)cccc3C2=O)cc1`, the concentration for total growth inhibition (TGI) in [1], in assay [2], in [3], in [4], in [5] and in assay [6] was above 100 µM throughout. Also, the TGI in assay [7], in [8], in assay [18], in assay [9], in assay [11] and in assay [12] was above 100 µM in each case. Also, the TGI in assay [13], in assay [14], in [16] and in [17] was above 100 µM in each case.

For `Cc1c2c(OCC(O)CN3CCN(c4ccccc4)CC3)nn(C)c(=O)c2c(C)n1-c1ccccc1` (stereo not drawn), the TGI in [1] is 78.3 µM; in [2] it was 73.7 µM; in [3] it was 42.3 µM; in assay [4] it was 46.3 µM; in assay [5], 31.3 µM; in assay [6], 36.5 µM. The TGI was above 100 µM in assay [7]; 88.9 µM in [8]; 52.5 µM in assay [18]; 91.8 µM in [9]; above 100 µM in [10]; 72.1 µM in assay [11]. For the same molecule, the TGI in assay [12] is 57.7 µM; in [13], 47.6 µM; in [14], above 100 µM; in assay [15], 69.2 µM; in [17], 40.2 µM.

As to `O=C(/C=C/c1ccc(C(F)(F)F)cc1)c1c([O-])on[n+]1-c1ccccc1`, the TGI in assay [1] was found to be 4.18 µM; in assay [2] it was 12.3 µM; in assay [3] it was 1.71 µM; in assay [4], 2.25 µM; in assay [5], 3.85 µM; in assay [6], 7.71 µM. In addition, the TGI in assay [7] came to 13 µM; in assay [8], 2.04 µM; in assay [10], 3.07 µM; in assay [11] it was 6.93 µM; in [12], 6.44 µM; in assay [13], 3.04 µM. Besides, the TGI in [14] was 15.5 µM; in assay [15], above 100 µM; in assay [16], 1.56 µM; in [19], 0.846 µM; in assay [17], 2.89 µM.

One may read the TGI as the concentration giving total growth inhibition. Low readings indicate more potent growth arrest, high ones less potent growth arrest.
